Test results reported in PMC7753147, “High-throughput determination of protein affinities using unmodified peptide libraries in nanomolar scale” (iScience, 2020).

Columns and labels:
native geph = assay: µSPOT peptide microarray binding assay with native geph from mouse brain lysate; conditions: normalized to most prominent spot, n = 2 array-internal duplicate
Description: Preparation of Mouse Tissue Lysates
Whole mouse brains were obtained from C57BL/6J mice at >4 weeks of age and 80 immediately flash frozen in liquid N2. Tissue of mRFP-gephyrin knock-in animals of 1 year of age (provided by Christian Specht, IBENS, Paris) was processed the same way. Before lysis, whole mouse brains were weighted and cut into four pieces along the coronal and sagittal axis. For preparation of one lysate, two diagonally opposite pieces were transferred into a 1.5 mL reaction tube (Sarsted). Lysis was carried out on ice in 400 µL RIPA lysis buffer (150 mM 85 NaCl, 50 mM Tris-HCl (pH=8), 1% Nonident P-40 substitute, 0.5% DOC, 0.1% SDS (all v/v)), to which Ethylenediaminetetraacetic acid (5 mM end concentration) and 1 mini tablet of ROCHE complete protease inhibitor per 10 mL was added immediately before use, by hand crushing the brain material with a hand pestle in a 1.5 mL reaction tube. Lysis was completed by 1 min sonification on ice with a Sartorius Labsonic M Sonificator at 20% amplitude with 90 care to avoid heating the suspensions. Finally, Lysates were centrifuged for 15 min at 17,200×g and 4 °C. The SN was subsequently collected, transferred to a new 1.5 mL reaction tube, flash frozen in liquid N2 and stored at -80 °C until use.
95 µSPOT slides were blocked by incubation with 2.5 mL 2% (w/v) IGG free bovine serum

gephE = assay: µSPOT peptide microarray binding assay with recombinant gephE; conditions: normalized to most prominent spot, n = 2 array-internal duplicate
[1] = overlapping GlyR β peptide library on µSPOT array, 3% mouse brain lysate
[2] = overlapping GlyR β peptide library on µSPOT array, 50 nM gephE, anti-gephyrin 3B11/HRP chemiluminescence
[3] = overlapping GABAAR α3 peptide library on µSPOT array, 6% mouse brain lysate
[4] = overlapping GABAAR α3 peptide library on µSPOT array, 20 nM gephE

Row | Sequence | Native geph Binding Intensity [norm.] (native geph; [1]) | gephE Binding Intensity [norm.] (gephE; [2]) | Native geph Binding Intensity [norm.] (native geph; [3]) | gephE Binding Intensity [norm.] (gephE; [4])
1 | TLQVGETRCKKVCTSKSDLR [Glycine receptor subunit beta_017, GlyR β residues 397-416] | 0.054 norm. | 0.016 norm. | – | –
2 | TISKSAAAPSASSTPTAIAS [GABAAR α3 residues 414-433, µSpot library] | – | – | 0.116 norm. | 0.024 norm.
3 | DCYGKPIEVNNGLGKPQAKN [Glycine receptor subunit beta_030, GlyR β residues 436-455] | 0.093 norm. | 0.049 norm. | – | –
4 | KKVPEALEMKKKTPAAPTKK [GABAAR α3 residues 372-391, µSpot library] | – | – | 0.081 norm. | 0.038 norm.
5 | HISTLQVGETRCKKVCTSKS [Glycine receptor subunit beta_016, GlyR β residues 394-413] | 0.042 norm. | 0.042 norm. | – | –
6 | KRVEAEKARIAKAEQADGKG [Glycine receptor subunit beta_004] | 0.117 norm. | 0.052 norm. | – | –
7 | CTSKSDLRSNDFSIVGSLPR [Glycine receptor subunit beta_021, GlyR β residues 409-428] | 0.379 norm. | 0.645 norm. | – | –
8 | SWAWEGKKVPEALEMKKKTP | – | – | 0.118 norm. | 0.064 norm.
9 | NAAKKNTVNGTGTPVHISTL [Glycine receptor subunit beta_011, GlyR β residues 379-398] | 0.077 norm. | 0.011 norm. | – | –
10 | IEVNNGLGKPQAKNKKPPPA [Glycine receptor subunit beta_032, GlyR β residues 442-461] | 0.075 norm. | 0.009 norm. | – | –
11 | TTFNIVGTTYPINLAKDTEF [GABAAR α3 residues 393-412, µSpot library] | – | – | 0.538 norm. | 0.457 norm.
12 | KKKTPAAPTKKNTTFNIVGT [GABAAR α3 residues 381-400, µSpot library] | – | – | 0.115 norm. | 0.053 norm.
13 | ADGKGGNAAKKNTVNGTGTP [Glycine receptor subunit beta_009] | 0.067 norm. | 0.015 norm. | – | –
14 | NIVGTTYPINLAKDTEFSTI [GABAAR α3 residues 396-415, µSpot library] | – | – | 0.114 norm. | 0.044 norm.
15 | YPINLAKDTEFSTISKSAAA [GABAAR α3 residues 402-421, µSpot library] | – | – | 0.114 norm. | 0.039 norm.
16 | PEALEMKKKTPAAPTKKNTT [GABAAR α3 residues 375-394, µSpot library] | – | – | 0.071 norm. | 0.038 norm.
17 | NLAKDTEFSTISKSAAAPSA [GABAAR α3 residues 405-424, µSpot library] | – | – | 0.122 norm. | 0.029 norm.
18 | KARIAKAEQADGKGGNAAKK [Glycine receptor subunit beta_006, GlyR β residues 364-383] | 0.091 norm. | 0.040 norm. | – | –
19 | STPTAIASPKATYVQDSPAE [GABAAR α3 residues 426-445, µSpot library] | – | – | 0.067 norm. | 0.019 norm.
20 | TVNGTGTPVHISTLQVGETR [Glycine receptor subunit beta_013] | 0.087 norm. | 0.008 norm. | – | –
21 | KDTEFSTISKSAAAPSASST [GABAAR α3 residues 408-427, µSpot library] | – | – | 0.136 norm. | 0.020 norm.
22 | LRSNDFSIVGSLPRDFELSN [Glycine receptor subunit beta_023, GlyR β residues 415-434] | 1.000 norm. | 1.000 norm. | – | –
23 | IAKAEQADGKGGNAAKKNTV [Glycine receptor subunit beta_007] | 0.066 norm. | 0.025 norm. | – | –
24 | AEQADGKGGNAAKKNTVNGT [Glycine receptor subunit beta_008, GlyR β residues 370-389] | 0.065 norm. | 0.023 norm. | – | –
25 | KPPPAKPVIPTAAKRIDL [Glycine receptor subunit beta_037, GlyR β residues 457-474] | 0.075 norm. | 0.037 norm. | – | –

Row | Sequence | Native geph Binding Intensity [norm.] (native geph; [1]) | gephE Binding Intensity [norm.] (gephE; [2]) | Native geph Binding Intensity [norm.] (native geph; [3]) | gephE Binding Intensity [norm.] (gephE; [4])
26 | FELSNYDCYGKPIEVNNGLG [Glycine receptor subunit beta_028, GlyR β residues 430-449] | 0.180 norm. | 0.112 norm. | – | –
27 | PRDFELSNYDCYGKPIEVNN [Glycine receptor subunit beta_027, GlyR β residues 427-446] | 0.521 norm. | 0.428 norm. | – | –
28 | KATYVQDSPAETKTYNSVSK [GABAAR α3 residues 435-454, µSpot library] | – | – | 0.059 norm. | 0.070 norm.
29 | YVQDSPAETKTYNSVSKVDK [GABAAR α3 residues 438-457, µSpot library] | – | – | 0.058 norm. | 0.073 norm.
30 | WEGKKVPEALEMKKKTPAAP [GABAAR α3 residues 369-388, µSpot library] | – | – | 0.105 norm. | 0.048 norm.
31 | GTGTPVHISTLQVGETRCKK [Glycine receptor subunit beta_014, GlyR β residues 388-407] | 0.068 norm. | 0.044 norm. | – | –
32 | SIVGSLPRDFELSNYDCYGK [Glycine receptor subunit beta_025, GlyR β residues 421-440] | 0.301 norm. | 0.291 norm. | – | –
33 | ASPKATYVQDSPAETKTYNS [GABAAR α3 residues 432-451, µSpot library] | – | – | 0.050 norm. | 0.020 norm.
34 | KKNTTFNIVGTTYPINLAKD [GABAAR α3 residues 390-409, µSpot library] | – | – | 0.243 norm. | 0.443 norm.
35 | KGGNAAKKNTVNGTGTPVHI [Glycine receptor subunit beta_010] | 0.077 norm. | 0.024 norm. | – | –
36 | SNYDCYGKPIEVNNGLGKPQ [Glycine receptor subunit beta_029, GlyR β residues 433-452] | 0.204 norm. | 0.216 norm. | – | –
37 | TPVHISTLQVGETRCKKVCT [Glycine receptor subunit beta_015, GlyR β residues 391-410] | 0.060 norm. | 0.013 norm. | – | –
38 | PQAKNKKPPPAKPVIPTAAK [Glycine receptor subunit beta_035, GlyR β residues 451-470] | 0.087 norm. | 0.012 norm. | – | –
39 | KSDLRSNDFSIVGSLPRDFE [Glycine receptor subunit beta_022, GlyR β residues 412-431] | 0.945 norm. | 0.972 norm. | – | –
40 | KNKKPPPAKPVIPTAAKRID [Glycine receptor subunit beta_036, GlyR β residues 454-473] | 0.068 norm. | 0.016 norm. | – | –
41 | SASSTPTAIASPKATYVQDS [GABAAR α3 residues 423-442, µSpot library] | – | – | 0.075 norm. | 0.022 norm.
42 | APTKKNTTFNIVGTTYPINL [GABAAR α3 residues 387-406, µSpot library] | – | – | 0.767 norm. | 1.000 norm.
43 | AAPSASSTPTAIASPKATYV [GABAAR α3 residues 420-439, µSpot library] | – | – | 0.080 norm. | 0.038 norm.
44 | KSAAAPSASSTPTAIASPKA [GABAAR α3 residues 417-436, µSpot library] | – | – | 0.103 norm. | 0.030 norm.
45 | NNPKRVEAEKARIAKAEQAD [Glycine receptor subunit beta_003, GlyR β residues 355-374] | 0.109 norm. | 0.023 norm. | – | –
46 | LGKPQAKNKKPPPAKPVIPT [Glycine receptor subunit beta_034, GlyR β residues 448-467] | 0.061 norm. | 0.022 norm. | – | –
47 | TRCKKVCTSKSDLRSNDFSI [Glycine receptor subunit beta_019, GlyR β residues 403-422] | 0.089 norm. | 0.033 norm. | – | –
48 | EAEKARIAKAEQADGKGGNA [Glycine receptor subunit beta_005, GlyR β residues 361-380] | 0.113 norm. | 0.024 norm. | – | –
49 | TAIASPKATYVQDSPAETKT [GABAAR α3 residues 429-448, µSpot library] | – | – | 0.060 norm. | 0.018 norm.
50 | TKRSWAWEGKKVPEALEMKK | – | – | 0.033 norm. | 0.049 norm.
